Each structure is given as a SMILES string. Several values for one entry are separate records, joined by “and”; a condition that tells them apart may be missing. Identical values can stand only once. Counter-ions that a name gives are not always drawn.

In one assay the target is T1, CMV polymerase (Human cytomegalovirus, UniProt P08546).
T1 construct: made in house; host or cells: recombinant baculovirus-infected SF-9 cells
T1 sequence (P08546 whole entry): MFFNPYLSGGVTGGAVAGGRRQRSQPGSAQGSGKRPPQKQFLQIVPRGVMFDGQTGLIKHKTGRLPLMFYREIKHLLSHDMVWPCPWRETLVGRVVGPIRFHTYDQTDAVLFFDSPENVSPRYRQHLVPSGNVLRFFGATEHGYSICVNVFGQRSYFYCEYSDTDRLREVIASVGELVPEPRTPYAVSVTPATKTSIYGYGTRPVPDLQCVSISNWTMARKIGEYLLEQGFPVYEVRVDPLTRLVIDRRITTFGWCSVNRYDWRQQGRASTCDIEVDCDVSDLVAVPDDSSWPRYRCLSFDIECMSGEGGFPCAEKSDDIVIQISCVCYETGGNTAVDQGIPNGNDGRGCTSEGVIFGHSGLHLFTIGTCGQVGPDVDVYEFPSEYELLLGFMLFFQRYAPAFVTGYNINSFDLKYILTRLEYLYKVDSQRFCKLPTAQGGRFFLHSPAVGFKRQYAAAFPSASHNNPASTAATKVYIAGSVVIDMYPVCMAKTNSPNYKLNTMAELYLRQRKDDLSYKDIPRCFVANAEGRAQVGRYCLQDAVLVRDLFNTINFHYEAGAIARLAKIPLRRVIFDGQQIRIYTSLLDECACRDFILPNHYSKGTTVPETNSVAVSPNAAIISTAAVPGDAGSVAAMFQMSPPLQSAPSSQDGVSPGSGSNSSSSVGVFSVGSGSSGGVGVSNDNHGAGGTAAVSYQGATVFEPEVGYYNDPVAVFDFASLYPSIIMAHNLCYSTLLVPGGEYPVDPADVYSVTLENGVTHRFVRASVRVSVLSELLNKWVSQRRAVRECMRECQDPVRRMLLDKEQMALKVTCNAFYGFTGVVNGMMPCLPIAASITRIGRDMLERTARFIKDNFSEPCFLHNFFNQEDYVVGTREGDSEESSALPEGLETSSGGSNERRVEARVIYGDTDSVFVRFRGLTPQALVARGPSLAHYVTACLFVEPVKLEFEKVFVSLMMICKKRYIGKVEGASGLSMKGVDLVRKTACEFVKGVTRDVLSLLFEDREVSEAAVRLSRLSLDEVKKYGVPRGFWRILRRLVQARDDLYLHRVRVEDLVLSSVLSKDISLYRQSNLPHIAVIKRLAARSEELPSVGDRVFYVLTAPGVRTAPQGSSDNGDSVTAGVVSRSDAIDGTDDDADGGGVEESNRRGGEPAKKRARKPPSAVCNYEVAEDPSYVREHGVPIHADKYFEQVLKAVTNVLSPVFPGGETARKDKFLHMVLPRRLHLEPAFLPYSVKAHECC
As to the kind of experiment: HCMV polymerase assay, scintillation proximity assay (SPA), modified version. The format is biochemical. As to conditions: CMV polymerase IC50 (μM), modified HCMV polymerase SPA assay: compounds diluted in 100% DMSO, 4.5 mM DTT in polymerase buffer, different lot of CMV polymerase. How it is done:
The HCMV polymerase assay is performed using a scintillation proximity assay (SPA) as described in several references, such as N. D. Cook, et al., Pharmaceutical Manufacturing International, pages 49-53 (1992); K. Takeuchi, Laboratory Practice, September issue (1992); U.S. Pat. No. 4,568,649 (1986); which are incorporated by reference herein. Reactions are performed in 96-well plates. The assay is conducted in 100 μl volume with 5.4 mM HEPES (pH 7.5), 11.7 mM KCl, 4.5 mM MgCl2, 0.36 mg/ml BSA, and 90 nM ^3H-dTTP. Assays are run with and without CHAPS, (3-[(3-Cholamidopropyl)-dimethylammonio]-1-propane-sulfonate) at a final concentration of 2 mM. HCMV polymerase is diluted in enzyme dilution buffer containing 50% glycerol, 250 mM NaCl, 10 mM HEPES (pH 7.5), 100 μg/ml BSA, and 0.01% sodium azide. The HCMV polymerase, which is expressed in recombinant baculovirus-infected SF-9 cells and purified according to literature procedures, is added at 10% (or 10 μl) of the final reaction volume, i.e., 100 μl. Compounds are diluted in 50% DMSO and 10 μl are added to each well. Control wells contain an equivalent concentration of DMSO. Unless noted otherwise, reactions are initiated via the addition of 6 nM biotinylated poly(dA)-oligo(dT) template/primer to reaction mixtures containing the enzyme, substrate, and compounds of interest. Plates are incubated in a 25 C. or 37 C. H2O bath and terminated via the addition of 40 μl/reaction of 0.5 M EDTA (pH 8) per well. Reactions are terminated within the time-frame during which substrate incorporation is linear and varied depending upon the enzyme and conditions used, i.e., 30 min. for HCMV polymerase. Ten μl of streptavidin-SPA beads (20 mg/ml in PBS/10% glycerol) are added following termination of the reaction. Plates are incubated 10 min. at 37 C., then equilibrated to room temperature, and counted on a Packard Topcount. Linear regressions are performed and IC50's are calculated using computer software.
A modified version of the above HCMV polymerase assay is performed as described above, but with the following changes: Compounds are diluted in 100% DMSO until final dilution into assay buffer. In the previous assay, compounds are diluted in 50% DMSO. 4.5 mM dithiotherotol (DTT) is added to the polymerase buffer.
For orientation: SPA uses beads or plates that emit light when radiolabelled molecules are held near them.
`COP(=O)(OC)OCC1Cn2cc(C(=O)NCc3ccc(Cl)cc3)c(=O)c3cc(CN4CCOCC4)cc(c32)O1` (centres unmarked) [Example 26, [6-{[(4-Chlorobenzyl)amino]carbonyl}-9-(4-morpholinylmethyl)-7-oxo-2,3-dihydro-7H-[1,4]oxazino[2,3,4-ij]quinolin-2-yl]methyl dimethyl phosphate]: the IC50 (in general, the concentration needed to halve the response being measured) was 0.53 µM.

Still in this assay, the particulars now being: modified HCMV polymerase SPA assay: compounds diluted in 100% DMSO, 4.5 mM DTT in polymerase buffer, different lot of CMV polymerase; read-out: CMV polymerase IC50.
On to `O=C(NCc1ccc(Cl)cc1)c1cn2c3c(cc(CN4CCOCC4)cc3c1=O)OC(CO)C2` (single isomer, unassigned) [Example 20, N-(4-Chlorobenzyl)-2-(R or S)-(hydroxymethyl)-9-(4-morpholinylmethyl)-7-oxo-2,3-dihydro-7H-[1,4]oxazino[2,3,4-ij]quinoline-6-carboxamide], for which the IC50 is 0.35 µM.
Still for that read-out and setting: the value for `O=C(NCc1ccc(Cl)cc1)c1cn2c3c(cc(CN4CCOCC4)cc3c1=O)OC(CO)C2` (single isomer, unassigned) [Example 21, N-(4-Chlorobenzyl)-2-(R or S)-(hydroxymethyl)-9-(4-morpholinylmethyl)-7-oxo-2,3-dihydro-7H-[1,4]oxazino[2,3,4-ij]quinoline-6-carboxamide] was 0.67 µM; that for `O=C(NCc1ccc(Cl)cc1)c1cn2c3c(cc(CN4CCOCC4)cc3c1=O)OC(CNCc1cccnc1)C2` (single isomer, unassigned) [Example 22, N-(4-chlorobenzyl)-9-(4-morpholinylmethyl)-7-oxo-2-(R or S)-{[(3-pyridinylmethyl)amino]methyl}-2,3-dihydro-7H-[1,4]oxazino[2,3,4-ij]quinoline-6-carboxamide] was 0.3 µM.
Same read-out and setting: the value for `O=C(NCc1ccc(Cl)cc1)c1cn2c3c(cc(CN4CCOCC4)cc3c1=O)OC(CNCc1cccnc1)C2` (single isomer, unassigned) [Example 23, N-(4-Chlorobenzyl)-9-(4-morpholinylmethyl)-7-oxo-2-(R or S)-{[3-pyridinylmethyl)amino]methyl}-2,3-dihydro-7H-[1,4]oxazino[2,3,4-ij]quinoline-6-carboxamide] was 1.1 µM; that for `O=C(NCc1ccc(Cl)cc1)c1cn2c3c(cc(CN4CCOCC4)cc3c1=O)OC(c1ccccn1)C2` (single isomer, unassigned) [Example 57, N-(4-Chlorobenzyl)-9-(morpholin-4-ylmethyl)-7-oxo-2-(R or S)-pyridin-2-yl-2,3-dihydro-7H-[1,4]oxazino[2,3,4-ij]quinoline-6-carboxamide] was 0.68 µM and 0.32 µM; that for `O=C(NCc1ccc(Cl)cc1)c1cn2c3c(cc(CN4CCOCC4)cc3c1=O)OC(c1cccnc1)C2` (single isomer, unassigned) [Example 58, N-(4-Chlorobenzyl)-9-(morpholin-4-ylmethyl)-7-oxo-2-(R or S)-pyridin-3-yl-2,3-dihydro-7H-[1,4]oxazino[2,3,4-ij]quinoline-6-carboxamide] was 0.57 µM and 0.27 µM.
Same read-out and setting: the value for `O=C(NCc1ccc(Cl)cc1)c1cn2c3c(cc(CN4CCOCC4)cc3c1=O)OC(CO)C2` (centres unmarked) [Example 1, N-(4-Chlorobenzyl)-2-(hydroxymethyl)-9-(4-morpholinylmethyl)-7-oxo-2,3-dihydro-7H-[1,4]oxazino[2,3,4-ij]quinoline-6-carboxamide] was 0.61 µM; that for `O=C(NCc1ccc(Cl)cc1)c1cn2c3c(cc(CN4CCOCC4)cc3c1=O)OC(CNCC(O)CO)C2` (centres unmarked) [Example 6, N-(4-Chlorobenzyl)-2-{[(2,3-dihydroxypropyl)amino]methyl}-9-(4-morpholinylmethyl)-7-oxo-2,3-dihydro-7H-[1,4]oxazino[2,3,4-ij]quinoline-6-carboxamide] was 0.66 µM; that for `O=C(NCc1ccc(Cl)cc1)c1cn2c3c(cc(CN4CCOCC4)cc3c1=O)OC(CNCCO)C2` (centres unmarked) [Example 7, N-(4-Chlorobenzyl)-2-{[(2-hydroxyethyl)amino]methyl}-9-(4-morpholinylmethyl)-7-oxo-2,3-dihydro-7H-[1,4]oxazino[2,3,4-ij]quinoline-6-carboxamide] was 0.67 µM.
For `O=C(NCc1ccc(Cl)cc1)c1cn2c3c(cc(CN4CCOCC4)cc3c1=O)OC(CN(CCO)CCO)C2` (centres unmarked) [Example 9, 2-{[bis(2-Hydroxyethyl)amino]methyl}-N-(4-chlorobenzyl)-9-(4-morpholinylmethyl)-7-oxo-2,3-dihydro-7H-[1,4]oxazino[2,3,4-ij]quinoline-6-carboxamide], the IC50 worked out at 0.59 µM.
For the compound `O=C(NCc1ccc(Cl)cc1)c1cn2c3c(cc(CN4CCOCC4)cc3c1=O)OC(CNCc1ccccn1)C2` (centres unmarked) [Example 10, N-(4-Chlorobenzyl)-9-(4-morpholinylmethyl)-7-oxo-2-{[(2-pyridinylmethyl)amino]methyl}-2,3-dihydro-7H-[1,4]oxazino[2,3,4-ij]quinoline-6-carboxamide], the IC50 was 0.62 µM.
On the same count and under the same terms, the value for `O=C(NCc1ccc(Cl)cc1)c1cn2c3c(cc(CN4CCOCC4)cc3c1=O)OC(CNCc1cccnc1)C2` (centres unmarked) [Example 11, N-(4-Chlorobenzyl)-9-(4-morpholinylmethyl)-7-oxo-2-{[(3-pyridinylmethyl)amino]methyl}-2,3-dihydro-7H-[1,4]oxazino[2,3,4-ij]quinoline-6-carboxamide] was 0.54 µM.
Same read-out and setting: the value for `O=C(NCc1ccc(Cl)cc1)c1cn2c3c(cc(CN4CCOCC4)cc3c1=O)OC(CSCCO)C2` (centres unmarked) [Example 16, N-(4-Chlorobenzyl)-2-{[(2-hydroxyethyl)sulfanyl]methyl}-9-(4-morpholinylmethyl)-7-oxo-2,3-dihydro-7H-[1,4]oxazino[2,3,4-ij]quinoline-6-carboxamide] was 0.42 µM; that for `Cn1ccnc1SCC1Cn2cc(C(=O)NCc3ccc(Cl)cc3)c(=O)c3cc(CN4CCOCC4)cc(c32)O1` (centres unmarked) [Example 17] was 0.27 µM.
On the same count and under the same terms, the value for `O=C(NCc1ccc(Cl)cc1)c1cn2c3c(cc(CN4CCOCC4)cc3c1=O)OC(CSCC(O)CO)C2` (centres unmarked) [Example 19, N-(4-Chlorobenzyl)-2-{[(2,3-dihydroxypropyl)sulfanyl]methyl}-9-(4-morpholinylmethyl)-7-oxo-2,3-dihydro-7H-[1,4]oxazino[2,3,4-ij]quinoline-6-carboxamide] was 0.57 µM.
For `CN(CCS(=O)(=O)O)C(=O)CCCCCCC(=O)OCC1Cn2cc(C(=O)NCc3ccc(Cl)cc3)c(=O)c3cc(CN4CCOCC4)cc(c32)O1` (centres unmarked) [Example 25, 2-[(8-{[6-{[(4-Chlorobenzyl)amino]carbonyl}-9-(4-morpholinylmethyl)-7-oxo-2,3-dihydro-7H-[1,4]oxazino[2,3,4-ij]quinolin-2-yl]methoxy}-8-oxooctanoyl)(methyl)amino]ethanesulfonic acid sodium salt], the IC50 came out at 1.3 µM.
On to `O=C(NCc1ccc(Cl)cc1)c1cn2c3c(cc(CN4CCOCC4)cc3c1=O)OC(c1ccccc1)C2` (centres unmarked) [Example 27, N-(4-Chlorobenzyl)-9-(4-morpholinylmethyl)-7-oxo-2-phenyl-2,3-dihydro-7H-[1,4]oxazino[2,3,4-ij]quinoline-6-carboxamide], for which the IC50 came out at 0.92 µM.
On the same count and under the same terms, the value for `O=C(NCc1ccc(Cl)cc1)c1cn2c3c(cc(CN4CCOCC4)cc3c1=O)OCC2c1ccccc1` (centres unmarked) [Example 29, N-(4-Chlorobenzyl)-9-(4-morpholinylmethyl)-7-oxo-3-phenyl-2,3-dihydro-7H-[1,4]oxazino[2,3,4-ij]quinoline-6-carboxamide] was 1 µM.
On the same count and under the same terms, the value for `O=C(NCc1ccc(Cl)cc1)c1cn2c3c(cc(CN4CCOCC4)cc3c1=O)OCC2CN1CCOCC1` (centres unmarked) [Example 30, N-(4-Chlorobenzyl)-3,9-bis(4-morpholinylmethyl)-7-oxo-2,3-dihydro-7H-[1,4]oxazino[2,3,4-ij]quinoline-6-carboxamide] was 0.97 µM.

The values are drawn from patent US6673793B2, “Oxazinoquinolones useful for the treatment of viral infections” (Pharmacia & Upjohn Co., priority 2000, dated 2004).
